Assay [1] addresses […] (Cdc25 Peptide, nonphosphorylated). Put plainly: GST-WW-domain incubated with peptide on a membrane, immunoblotting with GST antibody. It counts as binding. On the technique in general: In western blotting, separated proteins are transferred to a membrane and probed.
Another assay has as its target […] (Pro-Rich). Put plainly: Fluorescence anisotropy binding to fluorescein-labeled Pro-rich peptide. To be noted: GST-WW-domains; † estimated Kd, no plateau at 100 μM WW-domain.
Assay [2] has as its target EQPLpTPVTDL (Cdc25 Peptide). Put plainly: Fluorescence anisotropy binding to fluorescein-labeled phosphorylated Cdc25 peptide. The note with it: GST-WW-domains. On the technique in general: Polarisation of emitted light reports the rotation of a fluorescent probe.
In assay [3] the test system is neurofibrillary tangles in AD brain sections. Put plainly: Binding of recombinant Pin1 added onto brain sections, immunostaining. Details: species or system human. To be noted: Pin1 at 0.5 μM. Here is the method:
To further confirm that Pin1 has specific affinity for PHFs, recombinant Pin1 was added onto brain sections, washed, and then subjected to immunostaining using affinity purified Pin1 antibodies to localize bound Pin1. To localization exogenously added Pin1 in brain sections, 50 μm sections were cut from formalin fixed frontal cortex or hippocampus of human brains, endogenous peroxidase activity blocked with H2O2, followed by incubation with Pin1 at 0.5 μM. The sections were incubated with the mAb TG3 or anti-Pin1 antibodies that had been purified using GST-Pin1 glutathione beads, and visualized by the immunoperoxidase staining protocol, to detect endogenous Pin1, fixed brain sections were first microwaved in an antigen retrieval buffer (Biogenex), as described by the manufacturer, then subjected to immunostaining procedure.

The next assay relates to Cdc2 phosphorylated tau. Put plainly: Binding of Cdc2 phosphorylated tau to Taxol-stabilized microtubules. It counts as biochemical. To be noted: Pin1 0.1 mg/ml, tau 0.1 mg/ml. The text has this: The high affinity interaction between Pin 1 and phosphorylated tau can affect the biological activity of tau. Upon phosphorylation by many protein kinases, including Cdc2, tau loses its ability to bind microtubules (MTs) and promote MT assembly (Bramblett, G. T. et al., Neuron 10:1089-1099 (1993); Iqbal, K. et al., FEBS Lett 349:104-108 (1994); Yoshida, H. and Ihara, Y. J Neurochem 61:1183-1186 (1993); Alonso, A. C. et al., Proc Natl Acad Sci USA 91:5562-5566 (1994); Busciglio, J. et al., Neuron 14:879-888 (1995)) although the exact mechanism is not fully understood. To determine whether Pin1 can restore the ability of phosphorylated tau to bind MTs, phosphorylated tau was produced using purified Cdc2 (Vincent, I. et al., J Cell Biol 132:413-425 (1996); Vincent, I. et al., J Neurosci 17:3588-3598 (1997)) and assessed for its ability to bind Taxol-stabilized MTs in the presence or absence of Pin1. […] Pin1 was detected in the fraction of tau-bound MTs confirming interaction between Pin1 and phosphorylated tau.
The effect of Pin1 on the ability of phosphorylated tau to promote MT assembly was determined using light-scattering assays (Bramblett, G. T. et al., Neuron 10:1089-1099(1993); Alonso, A. C. et al., Proc Natl Acad Sci USA 91:5562-5566 (1994); Busciglio, J. et al., Neuron 14:879-888 (1995)). […]

The next assay deals with tau-promoted MT assembly. Put plainly: Microtubule assembly light-scattering assay (turbidity at 350 nm). The class given is biochemical. To be noted: 0.05 mg/ml protein, 0.05 mg/ml tau. Here is the method: The effect of Pin1 on the ability of phosphorylated tau to promote MT assembly was determined using light-scattering assays (Bramblett, G. T. et al., Neuron 10:1089-1099(1993); Alonso, A. C. et al., Proc Natl Acad Sci USA 91:5562-5566 (1994); Busciglio, J. et al., Neuron 14:879-888 (1995)). Briefly, MTs were assembled from phosphocellulose purified bovine tubulin (Cytoskeleton, Inc) and stabilized by Taxol. The nonphosphorylated or Cdc2 phosphorylated recombinant tau (0.1 mg/ml) was incubated with Pin1 (0.1 mg/ml) at 35° C. for 5 min before adding to the MTs. Bound tau was isolated by centrifugation (50,000×g) at 25° C. for 20 min, followed by immunoblotting analysis using CP27 and Pin1 antibodies. The ability of tau to promote MT assembly was determined using well established light-scattering assays. Briefly, the assembly of MTs was initiated by incubating tubulin (2 mg/ml) with or without tau (0.05 mg/ml) in 80 mM PIPES, pH 6.8, 1 mM EGTA, 1 mM MgCl2, 1 mM GTP, 20% glycerol at 35° C. for 2 min. The mixture was then transferred to a 100 μl cuvet and the rate of the MT assembly was monitored at room temperature using the turbidity increase at 350 nm. To examine the effect of Pin1, Pin1 or its mutant (0.05 mg/ml) was pre-incubated with tau or Cdc2 phosphorylated tau (0.05 mg/ml) at 35° C. for 5 min before the MT assembly assays.

For orientation: Kd means a measure of binding affinity in units of concentration.

Chain of tau-promoted MT assembly (P10636 45-219 isoform P10636-2 limits assumed): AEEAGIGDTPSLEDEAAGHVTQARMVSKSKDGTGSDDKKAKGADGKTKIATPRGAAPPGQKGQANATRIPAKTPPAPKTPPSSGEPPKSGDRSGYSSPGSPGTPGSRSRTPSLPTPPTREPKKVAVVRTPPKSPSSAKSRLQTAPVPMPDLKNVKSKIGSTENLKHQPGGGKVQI
Chain of Cdc2 phosphorylated tau (P10636 45-219 isoform P10636-2 limits assumed): as above

As to “Pin1 WW-domain: N-terminal WW-domain (amino acids 1-54) of Pin1 (MADEEKLPPGWEKRMSRSSGRVYYFNHITNASQWERPSGNSSSGGKNGQGEPAR; left off: a dimerising Fc or GST)”, the “Kd (μM) Cdc25 Peptide EQPLTPVTDL” value in assay [1] is “N.B.*”. In addition, the “Kd (μM) Pro-Rich IPGTPPPNYD” value in assay […] (Pro-Rich) was “N.B”. Also, the Kd in assay [2] was determined as 2.2 µM.
As for “Pin1: wild-type human prolyl isomerase (PPIase) Pin1 with N-terminal WW-domain; tag cleaved in Table 2”, the “binding in AD brain sections” value in assay [3] was “strongly bound neurofibrillary tangles and neurites”. The “restoration of binding of Cdc2 phosphorylated tau to MTs” value with Cdc2 phosphorylated tau was “binding was restored”. Besides, in the assay with tau-promoted MT assembly, the “effect on ability of Cdc2 phosphorylated tau to promote MT assembly” value is “restored the ability of Cdc2 phosphorylated tau to promote MT assembly” and the “effect on ability of nonphosphorylated tau to promote MT assembly” value is reported as “no effect”.

The values are drawn from US6495376B1, “Methods and compositions for regulating protein-protein interactions” (Beth Israel Deaconess Medical Center, priority 1999, dated 2002).
